# Measured values: ChEMBL document CHEMBL1811776, “Discovery of benzimidazole derivatives as novel multi-target EGFR, VEGFR-2 and PDGFR kinase inhibitors” (Bioorg Med Chem, 2011)
# Calls of active or inactive are those of the source. No cut-off for these calls is given here.
# Legend:
# HepG2 [1] = assay: cells; settings: Homo sapiens, HepG2, 72 h
# Description: Cytotoxicity against human HepG2 cells after 72 hrs by MTT assay
# [2] = target: Vascular endothelial growth factor receptor 2 (Homo sapiens) (UniProt P35968); assay: Inhibition of VEGFR-2 at 20 uM after 1 hrs by luminescence assay
# Chain of Vascular endothelial growth factor receptor 2 (Homo sapiens) (P35968 whole entry): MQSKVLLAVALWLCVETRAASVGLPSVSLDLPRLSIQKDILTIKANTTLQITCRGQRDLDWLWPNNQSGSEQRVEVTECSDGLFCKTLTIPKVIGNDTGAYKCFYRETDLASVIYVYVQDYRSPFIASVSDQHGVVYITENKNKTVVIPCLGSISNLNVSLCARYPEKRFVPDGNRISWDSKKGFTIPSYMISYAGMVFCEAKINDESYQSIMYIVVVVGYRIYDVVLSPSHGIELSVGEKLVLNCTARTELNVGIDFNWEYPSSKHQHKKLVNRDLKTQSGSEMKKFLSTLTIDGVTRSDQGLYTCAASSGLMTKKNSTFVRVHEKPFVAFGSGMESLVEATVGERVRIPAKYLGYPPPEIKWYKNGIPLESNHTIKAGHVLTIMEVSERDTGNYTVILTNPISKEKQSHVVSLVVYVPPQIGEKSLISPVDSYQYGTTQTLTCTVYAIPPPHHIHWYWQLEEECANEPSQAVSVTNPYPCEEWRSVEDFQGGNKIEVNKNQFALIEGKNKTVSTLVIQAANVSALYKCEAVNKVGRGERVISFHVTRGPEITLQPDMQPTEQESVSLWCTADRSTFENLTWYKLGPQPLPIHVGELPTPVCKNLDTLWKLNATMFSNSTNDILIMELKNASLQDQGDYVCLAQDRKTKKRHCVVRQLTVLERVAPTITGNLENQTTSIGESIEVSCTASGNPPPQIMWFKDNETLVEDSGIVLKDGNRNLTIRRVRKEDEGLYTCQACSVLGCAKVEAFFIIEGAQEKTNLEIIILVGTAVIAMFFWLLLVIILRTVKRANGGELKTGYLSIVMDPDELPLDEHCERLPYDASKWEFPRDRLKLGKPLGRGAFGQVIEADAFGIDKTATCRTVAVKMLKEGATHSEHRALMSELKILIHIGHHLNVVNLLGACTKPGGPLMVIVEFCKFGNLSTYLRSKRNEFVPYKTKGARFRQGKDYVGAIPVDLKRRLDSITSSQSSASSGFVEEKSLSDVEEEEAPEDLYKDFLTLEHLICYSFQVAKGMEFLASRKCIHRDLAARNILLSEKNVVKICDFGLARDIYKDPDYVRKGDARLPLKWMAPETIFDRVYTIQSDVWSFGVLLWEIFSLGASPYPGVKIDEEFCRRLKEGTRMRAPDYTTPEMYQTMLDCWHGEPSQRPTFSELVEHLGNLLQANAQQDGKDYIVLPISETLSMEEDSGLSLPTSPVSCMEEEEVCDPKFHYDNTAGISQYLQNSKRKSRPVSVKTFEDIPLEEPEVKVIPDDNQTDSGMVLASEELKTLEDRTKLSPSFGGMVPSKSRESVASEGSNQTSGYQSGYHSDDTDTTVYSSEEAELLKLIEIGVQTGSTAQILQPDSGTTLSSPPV
# [3] = target: Platelet-derived growth factor receptor alpha (Homo sapiens) (UniProt P16234); assay: Inhibition of PDGFR-alpha at 20 uM after 1 hrs by luminescence assay
# Chain of Platelet-derived growth factor receptor alpha (Homo sapiens) (P16234 whole entry): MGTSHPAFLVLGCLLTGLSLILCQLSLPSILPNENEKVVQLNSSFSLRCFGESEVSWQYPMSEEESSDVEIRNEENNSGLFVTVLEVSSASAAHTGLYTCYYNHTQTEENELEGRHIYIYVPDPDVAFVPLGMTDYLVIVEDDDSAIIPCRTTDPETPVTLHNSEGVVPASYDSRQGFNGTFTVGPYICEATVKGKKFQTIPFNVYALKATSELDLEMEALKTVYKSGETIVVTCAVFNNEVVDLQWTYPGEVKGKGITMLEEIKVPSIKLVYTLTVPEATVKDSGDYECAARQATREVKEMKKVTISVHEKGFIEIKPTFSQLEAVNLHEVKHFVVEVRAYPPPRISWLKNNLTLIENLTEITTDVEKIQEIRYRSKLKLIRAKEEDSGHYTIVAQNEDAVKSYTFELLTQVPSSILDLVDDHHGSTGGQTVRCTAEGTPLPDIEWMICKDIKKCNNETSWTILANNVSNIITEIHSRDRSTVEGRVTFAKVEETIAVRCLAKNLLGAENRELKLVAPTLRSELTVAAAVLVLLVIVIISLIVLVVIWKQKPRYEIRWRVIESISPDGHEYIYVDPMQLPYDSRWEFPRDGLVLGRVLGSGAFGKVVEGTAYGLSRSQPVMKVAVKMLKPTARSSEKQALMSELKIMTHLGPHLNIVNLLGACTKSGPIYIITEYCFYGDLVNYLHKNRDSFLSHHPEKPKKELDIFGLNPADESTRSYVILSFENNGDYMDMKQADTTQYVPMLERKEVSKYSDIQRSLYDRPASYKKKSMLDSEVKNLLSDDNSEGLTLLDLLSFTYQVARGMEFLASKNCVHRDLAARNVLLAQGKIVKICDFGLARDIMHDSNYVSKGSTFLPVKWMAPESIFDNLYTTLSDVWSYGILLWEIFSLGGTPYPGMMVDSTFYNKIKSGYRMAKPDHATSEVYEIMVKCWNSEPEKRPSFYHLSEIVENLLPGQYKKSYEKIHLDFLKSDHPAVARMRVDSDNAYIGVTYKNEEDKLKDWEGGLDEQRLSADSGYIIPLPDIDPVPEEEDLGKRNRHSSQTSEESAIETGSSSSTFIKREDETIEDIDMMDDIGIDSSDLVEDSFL
# [4] = target: Platelet-derived growth factor receptor beta (Homo sapiens) (UniProt P09619); assay: Inhibition of PDGFR-beta at 20 uM after 1 hrs by luminescence assay
# Chain of Platelet-derived growth factor receptor beta (Homo sapiens) (P09619 whole entry): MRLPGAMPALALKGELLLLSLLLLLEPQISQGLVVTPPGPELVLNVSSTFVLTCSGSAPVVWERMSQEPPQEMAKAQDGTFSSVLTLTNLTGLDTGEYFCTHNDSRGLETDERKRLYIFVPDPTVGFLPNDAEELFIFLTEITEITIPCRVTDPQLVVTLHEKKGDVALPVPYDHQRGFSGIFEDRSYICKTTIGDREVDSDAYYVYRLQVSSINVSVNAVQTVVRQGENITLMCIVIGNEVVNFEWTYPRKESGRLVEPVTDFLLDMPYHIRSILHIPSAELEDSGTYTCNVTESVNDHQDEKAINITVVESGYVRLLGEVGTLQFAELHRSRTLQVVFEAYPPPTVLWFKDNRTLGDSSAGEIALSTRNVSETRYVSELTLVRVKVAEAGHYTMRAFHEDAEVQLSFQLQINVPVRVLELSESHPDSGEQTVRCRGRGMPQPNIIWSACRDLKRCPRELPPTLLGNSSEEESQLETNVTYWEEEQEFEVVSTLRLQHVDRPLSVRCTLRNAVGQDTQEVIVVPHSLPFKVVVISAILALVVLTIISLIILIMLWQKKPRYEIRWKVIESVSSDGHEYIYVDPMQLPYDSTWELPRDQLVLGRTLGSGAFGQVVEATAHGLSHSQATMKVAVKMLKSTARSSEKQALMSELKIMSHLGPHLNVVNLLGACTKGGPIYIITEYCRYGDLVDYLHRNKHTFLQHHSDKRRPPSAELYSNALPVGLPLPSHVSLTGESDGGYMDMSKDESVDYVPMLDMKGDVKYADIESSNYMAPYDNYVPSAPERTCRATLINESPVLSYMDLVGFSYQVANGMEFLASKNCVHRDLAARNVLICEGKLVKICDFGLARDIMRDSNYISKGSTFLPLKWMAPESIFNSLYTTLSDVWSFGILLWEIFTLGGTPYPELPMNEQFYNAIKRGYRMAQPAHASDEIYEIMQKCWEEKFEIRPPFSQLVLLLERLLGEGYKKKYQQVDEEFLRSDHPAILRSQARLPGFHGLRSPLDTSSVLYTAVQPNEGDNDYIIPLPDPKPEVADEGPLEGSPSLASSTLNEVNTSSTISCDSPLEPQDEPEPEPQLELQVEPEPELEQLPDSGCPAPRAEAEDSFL
# [5] = target: Platelet-derived growth factor receptor alpha (Homo sapiens) (UniProt P16234); assay: Inhibition of PDGFR-alpha at 50 uM after 1 hrs by luminescence assay
# [6] = target: Vascular endothelial growth factor receptor 1 (Homo sapiens) (UniProt P17948); assay: Inhibition of VEGFR-1 at 50 uM after 1 hrs by luminescence assay
# Chain of Vascular endothelial growth factor receptor 1 (Homo sapiens) (P17948 whole entry, canonical isoform): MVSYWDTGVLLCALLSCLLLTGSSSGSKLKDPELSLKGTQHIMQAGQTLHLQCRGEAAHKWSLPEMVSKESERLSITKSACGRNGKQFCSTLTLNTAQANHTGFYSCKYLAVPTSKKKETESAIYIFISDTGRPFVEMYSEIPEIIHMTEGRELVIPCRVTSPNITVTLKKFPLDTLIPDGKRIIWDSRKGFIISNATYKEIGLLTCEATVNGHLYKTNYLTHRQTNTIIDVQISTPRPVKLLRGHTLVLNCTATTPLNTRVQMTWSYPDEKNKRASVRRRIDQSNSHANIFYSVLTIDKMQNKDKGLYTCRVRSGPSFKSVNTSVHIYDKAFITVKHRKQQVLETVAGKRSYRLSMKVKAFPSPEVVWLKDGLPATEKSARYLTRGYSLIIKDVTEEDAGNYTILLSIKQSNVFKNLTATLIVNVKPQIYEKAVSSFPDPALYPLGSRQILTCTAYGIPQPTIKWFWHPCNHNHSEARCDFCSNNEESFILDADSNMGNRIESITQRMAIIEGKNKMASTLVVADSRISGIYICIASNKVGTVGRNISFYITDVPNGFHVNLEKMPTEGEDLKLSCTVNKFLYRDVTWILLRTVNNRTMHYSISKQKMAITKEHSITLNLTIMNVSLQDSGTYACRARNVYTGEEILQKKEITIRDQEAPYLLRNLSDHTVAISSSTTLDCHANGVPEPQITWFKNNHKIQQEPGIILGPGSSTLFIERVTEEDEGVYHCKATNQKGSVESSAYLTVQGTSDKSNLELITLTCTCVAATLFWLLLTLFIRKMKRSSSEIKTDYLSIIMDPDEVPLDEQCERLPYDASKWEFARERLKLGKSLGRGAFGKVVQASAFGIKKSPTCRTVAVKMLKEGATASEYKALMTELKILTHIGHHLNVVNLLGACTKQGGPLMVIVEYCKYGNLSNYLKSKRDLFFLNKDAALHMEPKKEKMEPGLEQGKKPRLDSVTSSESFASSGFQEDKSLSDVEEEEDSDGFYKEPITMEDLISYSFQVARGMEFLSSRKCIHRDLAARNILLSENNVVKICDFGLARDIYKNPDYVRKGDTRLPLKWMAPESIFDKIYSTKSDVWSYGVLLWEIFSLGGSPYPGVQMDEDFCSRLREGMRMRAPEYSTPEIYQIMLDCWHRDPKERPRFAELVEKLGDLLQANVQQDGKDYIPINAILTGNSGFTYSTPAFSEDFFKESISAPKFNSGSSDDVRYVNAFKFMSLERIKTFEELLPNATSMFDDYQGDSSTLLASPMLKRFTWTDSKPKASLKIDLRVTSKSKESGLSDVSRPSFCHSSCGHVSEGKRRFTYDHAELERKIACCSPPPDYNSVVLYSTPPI
# [7] = target: Phosphatidylinositol 4,5-bisphosphate 3-kinase catalytic subunit alpha isoform (Homo sapiens) (UniProt P42336); assay: Inhibition of PI3K-alpha at 50 uM after 1 hrs by luminescence assay
# [8] = target: Platelet-derived growth factor receptor beta (Homo sapiens) (UniProt P09619); assay: Inhibition of PDGFR-beta at 50 uM after 1 hrs by luminescence assay
# [9] = target: Epidermal growth factor receptor (Homo sapiens, UniProt P00533); assay: Inhibition of EGFR after 1 hrs by luminescence assay
# HepG2 [10] = assay: Induction of apoptosis in human HepG2 cells assessed as early apoptotic cells at 2 uM after 72 hrs using annexin V-propidium iodide staining based flow cytometric analysis; assay type: functional
# [11] = target: Vascular endothelial growth factor receptor 2 (Homo sapiens) (UniProt P35968); assay: Inhibition of VEGFR-2 at 50 uM after 1 hrs by luminescence assay
# HepG2 [12] = assay: Induction of apoptosis in human HepG2 cells assessed as late apoptotic or dead cells at 2 uM after 72 hrs using annexin V-propidium iodide staining based flow cytometric analysis; assay type: functional
smiles,measurement,setting,value
CCN1CCN(CC(=O)Nc2ccc3[nH]c(-c4ccc(C)cc4)nc3c2)CC1,IC50,HepG2 [1],31.9 µM
Cc1cnc(C(=O)Nc2ccc3[nH]c(-c4ccc(F)cc4)nc3c2)cn1,inhibition,[2],0.5%
same,inhibition,[3],5.43%
same,inhibition,[4],0.5%
Cn1cccc1-c1nc2cc(NC(=O)CCCl)ccc2[nH]1,IC50,HepG2 [1],> 50 µM
O=C(Nc1ccc2[nH]c(-c3ccc(F)cc3)nc2c1)c1cnccn1,inhibition,[2],0.58%
same,inhibition,[3],2.55%
same,inhibition,[4],0.27%
CCN1CCN(CCC(=O)Nc2ccc3[nH]c(-c4ccc(C)cc4)nc3c2)CC1,IC50,HepG2 [1],14.6 µM
Cc1ccc(-c2nc3cc(NC(=O)CN4CCOCC4)ccc3[nH]2)cc1,IC50,HepG2 [1],> 50 µM
Cc1ccc(-c2nc3cc(NC(=O)CN4CCCCC4)ccc3[nH]2)cc1,IC50,HepG2 [1],> 50 µM
CN[C@@H]1C[C@H]2O[C@@](C)([C@@H]1OC)n1c3ccccc3c3c4c(c5c6ccccc6n2c5c31)C(=O)NC4,inhibition,[5],92.6%
same,inhibition,[6],93.4%
same,inhibition,[7],97%
same,inhibition,[3],97.5%
Cn1cccc1-c1nc2cc(NC(=O)CCl)ccc2[nH]1,inhibition,[5],18.7%
same,IC50,HepG2 [1],1.8 µM
same,inhibition,[8],17.8%
same,IC50,[9],12.1 µM
same,inhibition,[6],inactive
same,Activity,HepG2 [10],22.8%
same,inhibition,[11],16.5%
same,inhibition,[7],3.7%
same,Activity,HepG2 [12],18.7%
Cc1ccc(-c2nc3cc(NC(=O)CN4CCN(C)CC4)ccc3[nH]2)cc1,IC50,HepG2 [1],> 50 µM
Cc1ccc(-c2nc3cc(NC(=O)CCN4CCN(C)CC4)ccc3[nH]2)cc1,IC50,HepG2 [1],> 50 µM
Cc1ccc(-c2nc3cc(NC(=O)CCN4CCCCC4)ccc3[nH]2)cc1,IC50,HepG2 [1],11.9 µM
CCN1CCN(CCC(=O)Nc2ccc3[nH]c(-c4ccc(Br)cc4)nc3c2)CC1,IC50,HepG2 [1],27.4 µM
COc1cc2c(c(OC)c1OC)-c1ccc(OC)c(=O)cc1[C@@H](NC(C)=O)CC2 [COLCHICINE],IC50,HepG2 [1],0.05 µM
CCN1CCN(CC(=O)Nc2ccc3[nH]c(-c4cccn4C)nc3c2)CC1,IC50,HepG2 [1],> 50 µM
Cc1ccc(-c2nc3cc(NC(=O)CN4CCCC4)ccc3[nH]2)cc1,IC50,HepG2 [1],> 50 µM
Cc1ccc(-c2nc3cc(NC(=O)CCl)ccc3[nH]2)cc1,inhibition,[5],42.7%
same,IC50,HepG2 [1],2 µM
same,inhibition,[8],52.6%
same,IC50,[9],1.93 µM
same,inhibition,[6],7.3%
same,Activity,HepG2 [10],28.6%
same,inhibition,[11],33.1%
same,inhibition,[7],inactive
same,Activity,HepG2 [12],16.6%
O=C(CCCl)Nc1ccc2[nH]c(-c3ccc(Br)cc3)nc2c1,IC50,HepG2 [1],11.3 µM
CCN1CCN(CCC(=O)Nc2ccc3[nH]c(-c4cccn4C)nc3c2)CC1,IC50,HepG2 [1],> 50 µM
Cc1ccc(-c2nc3cc(NC(=O)CCCl)ccc3[nH]2)cc1,inhibition,[5],17%
same,IC50,HepG2 [1],> 50 µM
same,inhibition,[8],24.6%
same,inhibition,[6],3.3%
same,inhibition,[11],inactive
same,inhibition,[7],inactive
